# Source: ChEMBL document CHEMBL3102850, “Microwave assisted synthesis of naphthopyrans catalysed by silica supported fluoroboric acid as a new class of non purine xanthine oxidase inhibitors” (Bioorg Med Chem Lett, 2014)
# pIC50: −log10 of the molar value.
# Experiments:
# [1] = biological target: T1, Xanthine dehydrogenase/oxidase (Bos taurus, UniProt P80457); assay: Inhibition of bovine milk xanthine oxidase using xanthine as substrate assessed as decrease in uric acid formation at 50 uM preincubated for 5 mins; settings: cattle
# T1 sequence (P80457 whole entry): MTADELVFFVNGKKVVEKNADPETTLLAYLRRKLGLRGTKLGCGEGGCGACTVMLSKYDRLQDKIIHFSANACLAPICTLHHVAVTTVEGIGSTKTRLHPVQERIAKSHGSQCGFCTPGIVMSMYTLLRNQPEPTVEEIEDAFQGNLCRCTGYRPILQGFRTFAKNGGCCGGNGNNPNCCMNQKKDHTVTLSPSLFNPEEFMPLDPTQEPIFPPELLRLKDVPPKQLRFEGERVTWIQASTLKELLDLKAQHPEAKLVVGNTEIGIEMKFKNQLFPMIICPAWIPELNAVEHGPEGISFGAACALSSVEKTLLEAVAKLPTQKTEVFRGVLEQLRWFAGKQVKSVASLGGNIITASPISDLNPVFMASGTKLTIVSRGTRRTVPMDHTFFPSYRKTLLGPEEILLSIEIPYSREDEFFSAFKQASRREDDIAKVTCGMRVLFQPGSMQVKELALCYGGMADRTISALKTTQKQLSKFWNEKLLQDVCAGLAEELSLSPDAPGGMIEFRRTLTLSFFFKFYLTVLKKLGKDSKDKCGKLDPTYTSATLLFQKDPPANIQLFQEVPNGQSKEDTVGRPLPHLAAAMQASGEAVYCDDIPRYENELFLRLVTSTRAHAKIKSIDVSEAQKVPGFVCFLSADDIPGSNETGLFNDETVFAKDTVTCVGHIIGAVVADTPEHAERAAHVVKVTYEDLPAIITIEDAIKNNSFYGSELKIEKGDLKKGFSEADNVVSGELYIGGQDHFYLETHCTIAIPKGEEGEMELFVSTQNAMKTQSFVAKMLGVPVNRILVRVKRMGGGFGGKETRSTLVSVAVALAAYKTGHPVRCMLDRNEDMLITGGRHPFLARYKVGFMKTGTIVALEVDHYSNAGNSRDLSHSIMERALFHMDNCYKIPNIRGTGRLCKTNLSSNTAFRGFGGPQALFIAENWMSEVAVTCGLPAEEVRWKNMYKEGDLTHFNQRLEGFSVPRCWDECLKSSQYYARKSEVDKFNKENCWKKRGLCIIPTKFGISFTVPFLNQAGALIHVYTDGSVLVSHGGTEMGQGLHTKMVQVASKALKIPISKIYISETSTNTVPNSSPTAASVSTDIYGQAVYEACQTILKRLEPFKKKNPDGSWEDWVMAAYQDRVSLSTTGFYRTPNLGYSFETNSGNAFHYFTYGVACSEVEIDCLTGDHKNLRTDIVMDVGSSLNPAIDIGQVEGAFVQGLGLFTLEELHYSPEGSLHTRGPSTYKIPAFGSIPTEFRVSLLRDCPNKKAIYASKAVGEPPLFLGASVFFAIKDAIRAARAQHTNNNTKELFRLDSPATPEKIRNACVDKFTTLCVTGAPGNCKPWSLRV
# [2] = biological target: T1, Xanthine dehydrogenase/oxidase; assay: Inhibition of bovine milk xanthine oxidase using xanthine as substrate assessed as decrease in uric acid formation preincubated for 5 mins
inhibition at 50 µM [1],pIC50 [2],Compound
50%,,COC(=O)C1=C(C)Oc2ccc3ccccc3c2C1c1cc(OC)c(OC)c(OC)c1 (stereo unspecified)
69.3%,,COC(=O)C1=C(C)Oc2ccc3ccccc3c2C1c1ccc(OC)c(O)c1 (stereo unspecified)
20.9%,,CCOC(=O)C1=C(C)Oc2ccc3ccccc3c2C1c1ccc(Cl)cc1 (stereo unspecified)
78.2%,4.77,COC(=O)C1=C(C)Oc2ccc3ccccc3c2C1c1ccc(OC)c(OC)c1 (stereo unspecified)
67.5%,,COC(=O)C1=C(C)Oc2ccc3ccccc3c2C1c1ccc(O)c(OC)c1 (stereo unspecified)
62.3%,,CCOC(=O)C1=C(C)Oc2ccc3ccccc3c2C1c1ccc(OC)c(OC)c1 (stereo unspecified)
59.6%,,COC(=O)C1=C(C)Oc2ccc3ccccc3c2C1c1cccc(Oc2ccccc2)c1 (stereo unspecified)
21.4%,,CCOC(=O)C1=C(C)Oc2ccc3ccccc3c2C1c1ccc([N+](=O)[O-])cc1 (stereo unspecified)
50.5%,,CCOC(=O)C1=C(C)Oc2ccc3ccccc3c2C1c1cccc(Oc2ccccc2)c1 (stereo unspecified)
88.6%,4.88,CCOC(=O)C1=C(C)Oc2ccc3ccccc3c2C1c1ccco1 (stereo unspecified)
65.2%,4.35,CCOC(=O)C1=C(C)Oc2ccc3ccccc3c2C1c1ccccc1 (stereo unspecified)
23.9%,,COC(=O)C1=C(C)Oc2ccc3ccccc3c2C1c1ccc(Cl)cc1 (stereo unspecified)
11.3%,,CCOC(=O)C1=C(C)Oc2ccc3ccccc3c2C1/C=C/c1ccccc1 (stereo unspecified)
94.5%,5.21,COC(=O)C1=C(C)Oc2ccc3ccccc3c2C1c1ccc[nH]1 (stereo unspecified)
58.9%,,CCCCCC1C(C(=O)OC)=C(C)Oc2ccc3ccccc3c21 (stereo unspecified)
92.5%,5.00,COC(=O)C1=C(C)Oc2ccc3ccccc3c2C1c1ccco1 (stereo unspecified)
32%,,COC(=O)C1=C(C)Oc2ccc3ccccc3c2C1
72.4%,4.62,COC(=O)C1=C(C)Oc2ccc3ccccc3c2C1c1ccc(O)cc1 (stereo unspecified)
96.6%,5.40,COC(=O)C1=C(C)Oc2ccc3ccccc3c2C1c1cccs1 (stereo unspecified)
56.5%,,CCOC(=O)C1=C(C)Oc2ccc3ccccc3c2C1c1ccc(OC)cc1 (stereo unspecified)
58.8%,,COC(=O)C1=C(C)Oc2ccc3ccccc3c2C1c1ccccc1OC (stereo unspecified)
93.3%,5.14,COC(=O)C1=C(C)Oc2ccc3ccccc3c2C1c1sccc1C (stereo unspecified)
89%,4.94,CCOC(=O)C1=C(C)Oc2ccc3ccccc3c2C1c1cccs1 (stereo unspecified)
25%,,COC(=O)C1=C(C)Oc2ccc3ccccc3c2C1c1ccc([N+](=O)[O-])cc1 (stereo unspecified)
64.7%,,CCOC(=O)C1=C(C)Oc2ccc3ccccc3c2C1c1ccc(OC)c(O)c1 (stereo unspecified)
68.7%,4.44,COC(=O)C1=C(C)Oc2ccc3ccccc3c2C1c1ccc(OC)cc1 (stereo unspecified)
